Measurements reported in patent publication US20050074803A1, “Method for determining an active agent dose” (Bayer Technology Services GmbH, priority 2003, published 2005).
Like-named read-outs stand apart in the source and are kept apart here.

Tests used:
[1] = human
[2] = 0.25 mg digoxin, cited from earlier work
[3] = Experimental maximum plasma concentration of digoxin in patients by MDR1 exon 26 (C3435T) polymorphism; assay type: in vivo, human; details: type TT versus wild type
Source text: The transport protein which has been most widely studied and described in the literature is p-glycoprotein (P-Gp) which, besides other organs, is expressed particularly in the gut where it can have an influence on the absorption of orally applied active agents. The associated gene is generally identified as MDR1. MDR1 may be present in different alleles, it being known that these lead to different activity of the associated protein (see Martin F. Fromm, The influence of MDR1 polymorphisms on P-glycoprotein expression and function in humans, Advanced Drug Delivery Reviews 54, 1295 (2002)). For P-Gp, tables of pharmaceutical active agents which are a substrate for it have been published (see for example C. J. Matheny et al., Pharmacokinetic and Pharmacodynamic Implications of P-glycoprotein Modulation, Pharmacotherapy, 21, 778 (2001)). One example of such a substrate is digoxin.
For instance, the Cmax values (maximum plasma concentration) listed in Table 1 are given for the polymorphism in exon 26 (C3435T).

clearance [1]: 0.48 mL/min/kg
Papp ([1]; not told): 1.4 ×10⁻⁶ cm/s
fraction unbound ([1]; plasma): 0.73
experimentally found increase of Cmax [3]: 30%
SMILES: C[C@H]1O[C@@H](O[C@H]2[C@@H](O)C[C@H](O[C@H]3[C@@H](O)C[C@H](O[C@H]4CC[C@@]5(C)[C@H](CC[C@@H]6[C@@H]5C[C@@H](O)[C@]5(C)[C@@H](C7=CC(=O)OC7)CC[C@]65O)C4)O[C@@H]3C)O[C@@H]2C)C[C@H](O)[C@@H]1O [digoxin]
Cmax experiment ([2]; patients with CC (wild type) polymorphism in exon 26 (C3435T) of MDR1, plasma): 1.6 ng/mL
Cmax experiment ([2]; patients with TT (homozygotic) polymorphism in exon 26 (C3435T) of MDR1, plasma): 2.1 ng/mL
